This note sets out measurements from patent US12264156B2, “Compounds and pharmaceutical compositions thereof for the treatment of diseases” (GALAPAGOS NV, priority 2018, dated 2025).

For one assay, the target named is T1, SIK2 (Homo sapiens, UniProt Q9H0K1).
T1 construct: purchased ThermoFisher Scientific PV4792
Put plainly: ADP-Glo kinase assay, SIK2. The assay is classed as biochemical. The settings on record: ADP-Glo SIK kinase assay. Summed up:
(§1)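 ADP-Glo luminescent assay of ADP formed by SIK2 or SIK3 with substrate after ATP addition, 120 min at RT. Remaining ATP depleted 40 min, then ADP converted to ATP and read by luciferase luminescence after 30 min. Controls: 1% DMSO and 10 μM staurosporine (final).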
(In general: ADP-Glo turns the ADP formed in a reaction into a luminescent signal.)

The target of another assay is T2, SIK3 (Homo sapiens, UniProt Q9Y2K2).
T2 construct: purchased SignalChem S12-11G-100
T2 sequence (Q9Y2K2 whole entry): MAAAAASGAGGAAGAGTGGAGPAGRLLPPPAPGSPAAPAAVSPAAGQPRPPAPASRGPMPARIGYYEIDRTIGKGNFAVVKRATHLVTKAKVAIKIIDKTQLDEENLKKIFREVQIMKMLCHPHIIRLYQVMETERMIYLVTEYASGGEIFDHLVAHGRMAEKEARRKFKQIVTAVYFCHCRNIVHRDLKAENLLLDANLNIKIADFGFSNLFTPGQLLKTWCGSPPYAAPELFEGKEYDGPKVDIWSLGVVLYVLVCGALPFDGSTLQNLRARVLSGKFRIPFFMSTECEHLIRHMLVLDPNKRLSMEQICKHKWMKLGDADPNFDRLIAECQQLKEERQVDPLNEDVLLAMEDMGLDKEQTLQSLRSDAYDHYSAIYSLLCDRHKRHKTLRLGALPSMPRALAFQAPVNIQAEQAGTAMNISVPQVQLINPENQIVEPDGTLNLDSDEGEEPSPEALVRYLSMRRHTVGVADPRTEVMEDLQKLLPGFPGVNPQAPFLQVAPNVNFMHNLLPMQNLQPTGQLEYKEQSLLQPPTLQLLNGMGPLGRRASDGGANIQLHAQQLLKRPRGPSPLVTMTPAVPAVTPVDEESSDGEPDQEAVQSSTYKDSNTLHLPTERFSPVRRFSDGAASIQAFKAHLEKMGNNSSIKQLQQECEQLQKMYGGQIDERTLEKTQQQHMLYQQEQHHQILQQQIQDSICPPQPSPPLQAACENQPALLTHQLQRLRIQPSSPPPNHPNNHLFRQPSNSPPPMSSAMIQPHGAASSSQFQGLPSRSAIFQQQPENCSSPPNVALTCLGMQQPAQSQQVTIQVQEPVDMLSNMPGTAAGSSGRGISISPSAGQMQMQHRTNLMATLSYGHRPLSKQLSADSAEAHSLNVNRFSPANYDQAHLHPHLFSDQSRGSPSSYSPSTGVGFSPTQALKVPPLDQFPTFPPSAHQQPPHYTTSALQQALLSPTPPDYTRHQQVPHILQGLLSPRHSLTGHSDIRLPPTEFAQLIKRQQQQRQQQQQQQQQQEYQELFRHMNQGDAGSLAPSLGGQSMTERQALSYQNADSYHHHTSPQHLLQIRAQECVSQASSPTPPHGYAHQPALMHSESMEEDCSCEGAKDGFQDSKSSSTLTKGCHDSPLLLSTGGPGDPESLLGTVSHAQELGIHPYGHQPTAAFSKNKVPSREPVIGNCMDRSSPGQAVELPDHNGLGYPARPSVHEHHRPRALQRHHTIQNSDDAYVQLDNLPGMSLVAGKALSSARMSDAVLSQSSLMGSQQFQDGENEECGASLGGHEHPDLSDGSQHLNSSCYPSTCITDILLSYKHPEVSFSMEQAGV
Put plainly: ADP-Glo kinase assay, SIK3. The assay is classed as biochemical. The settings on record: ADP-Glo SIK kinase assay. The essentials:
as §1

For assay [1], the system named is LPS-induced TNFα in monocyte-derived macrophages (MdM). Description: MdM assay: LPS-triggered TNFα (ELISA). The assay is classed as cell-based, human. The settings on record: Homo sapiens, Macrophage, 20 h, monocyte-derived macrophages, LPS 200 ng/mL, supernatant after 20 h; read-out: TNFα EC50. Summed up: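 Human monocyte-derived macrophages from CD14+ bead-selected buffy-coat PBMCs, used on day 10, pre-treated with compound for 1 h at 37 °C (0.2% DMSO), then stimulated with 200 ng/mL LPS. Supernatant taken after 20 h for TNFα sandwich ELISA (IL-10 at 2 h).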
Background: An ELISA detects its analyte on a solid surface through an enzyme-linked reagent.

Broadly, the IC50 is the midpoint of a concentration-inhibition curve. A high value points to lower potency. As a reminder, the EC50 is the concentration giving half of the maximal effect.

T1 sequence (Q9H0K1 whole entry): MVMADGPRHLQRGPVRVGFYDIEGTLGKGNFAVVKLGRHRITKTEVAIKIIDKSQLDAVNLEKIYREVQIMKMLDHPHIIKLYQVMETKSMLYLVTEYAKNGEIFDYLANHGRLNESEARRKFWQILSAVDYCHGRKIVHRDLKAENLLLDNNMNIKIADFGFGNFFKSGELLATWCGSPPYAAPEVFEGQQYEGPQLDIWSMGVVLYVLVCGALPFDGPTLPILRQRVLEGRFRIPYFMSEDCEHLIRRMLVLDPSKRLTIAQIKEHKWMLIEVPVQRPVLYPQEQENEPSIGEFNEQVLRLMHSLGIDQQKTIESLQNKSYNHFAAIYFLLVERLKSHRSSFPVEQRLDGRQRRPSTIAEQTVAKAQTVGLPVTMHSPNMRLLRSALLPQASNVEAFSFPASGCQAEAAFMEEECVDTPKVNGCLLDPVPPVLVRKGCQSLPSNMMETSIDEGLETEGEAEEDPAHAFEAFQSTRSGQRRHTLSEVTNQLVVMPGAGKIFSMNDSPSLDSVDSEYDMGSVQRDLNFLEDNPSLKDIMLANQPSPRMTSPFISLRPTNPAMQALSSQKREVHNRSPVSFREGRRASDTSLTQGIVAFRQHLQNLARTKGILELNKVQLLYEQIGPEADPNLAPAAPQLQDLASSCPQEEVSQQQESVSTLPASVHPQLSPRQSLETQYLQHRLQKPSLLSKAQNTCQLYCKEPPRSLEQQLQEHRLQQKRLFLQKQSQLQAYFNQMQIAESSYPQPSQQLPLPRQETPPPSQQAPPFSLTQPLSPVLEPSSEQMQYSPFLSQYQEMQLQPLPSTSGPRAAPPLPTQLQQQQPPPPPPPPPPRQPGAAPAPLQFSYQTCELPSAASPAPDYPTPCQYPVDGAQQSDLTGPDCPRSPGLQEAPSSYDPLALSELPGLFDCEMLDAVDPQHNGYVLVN

With `COc1cc(-c2cnc3cc(OC[C@@H]4CN(C)CCO4)ccn23)cc2c1C(=O)N(CC(F)(F)F)CC2` [compound 191, 8-methoxy-6-[7-[[(2S)-4-methylmorpholin-2-yl]methoxy]imidazo [1,2-a]pyridin-3-yl]-2-(2,2,2-trifluoroethyl)-3,4-dihydroisoquinolin-1-one], the IC50 against SIK2 and at SIK3 was 0.01 to 10 nM in each case. For the same compound, in assay [1], the EC50 is 100 to 1000 nM.
On to `COc1cc(-c2cnc3cc(OCc4cnco4)ccn23)cc2c1C(=O)N(CC(F)(F)F)CC2` [compound 126, 8-methoxy-6-[7-(oxazol-5-ylmethoxy)imidazo[1,2-a]pyridin-3-yl]-2-(2,2,2-trifluoroethyl)-3,4-dihydroisoquinolin-1-one], for which the IC50 on SIK2 and on SIK3 was 0.01 to 10 nM each time. Besides, the EC50 in assay [1] fell in the range of 100 to 1000 nM.
As to `CCOC(=O)C1(F)CCN(CCOc2ccn3c(-c4cc(OC)c(C(=O)NC5CC5)c(OC(F)F)c4)cnc3c2)CC1` [compound 390, ethyl 1-[2-[3-[4-(cyclopropylcarbamoyl)-3-(difluoromethoxy)-5-methoxy-phenyl]imidazo[1,2-a]pyridin-7-yl]oxyethyl]-4-fluoro-piperidine-4-carboxylate], the IC50 against SIK2 and against SIK3 was 0.01 to 10 nM throughout. The EC50 in assay [1] was 0.1 to 100 nM.
In the case of `COc1cc(-c2cnc3cc(OC(C)C(F)(F)F)ccn23)cc(OC(F)F)c1C(=O)NC1CC1` (stereo not drawn) [compound 45, N-cyclopropyl-2-(difluoromethoxy)-6-methoxy-4-[7-(2,2,2-trifluoro-1-methyl-ethoxy)imidazo[1,2-a]pyridin-3-yl]benzamide], the IC50 fell in the range of 10 to 100 nM against SIK2 and 0.01 to 10 nM against SIK3. Moreover, the EC50 in assay [1] was 100 to 1000 nM.
Taken in the same sequence, the figures for `COc1cc(-c2cnc3cc(OCCN4CCCC4)ccn23)cc2c1C(=O)N(CC(F)(F)F)CC2` [compound 123, 8-methoxy-6-[7-(2-pyrrolidin-1-ylethoxy)imidazo[1,2-a]pyridin-3-yl]-2-(2,2,2-trifluoroethyl)-3,4-dihydroisoquinolin-1-one] were 0.01 to 10 nM, 0.01 to 10 nM and 100 to 1000 nM.
For `COc1cc(-c2cnc3cc(OCCN4CC(F)(F)C4)ccn23)cc2c1C(=O)N(CC(F)(F)F)CC2` [Cpd 244, 6-[7-[2-(3,3-difluoroazetidin-1-yl)ethoxy]imidazo[1,2-a]pyridin-3-yl]-8-methoxy-2-(2,2,2-trifluoroethyl)-3,4-dihydroisoquinolin-1-one] the same measures were 0.01 to 10 nM, 0.01 to 10 nM and 100 to 1000 nM.
For `COc1cc(-c2cnc3cc(OCCCN4CCC5(CC4)CNC(=O)O5)ccn23)cc(OC(F)F)c1C(=O)NC1CC1` [Cpd 324, N-cyclopropyl-2-(difluoromethoxy)-6-methoxy-4-[7-[3-(2-oxo-1-oxa-3,8-diazaspiro[4.5]decan-8-yl)propoxy]imidazo[1,2-a]pyridin-3-yl]benzamide], the IC50 at SIK2 and against SIK3 was 0.01 to 10 nM throughout. Moreover, the EC50 in assay [1] was in the range of 100 to 1000 nM.
For `CNCCOc1ccn2c(-c3cc(OC)c(C(=O)NC4CC4)c(OC(F)F)c3)cnc2c1` [compound 117, N-cyclopropyl-2-(difluoromethoxy)-6-methoxy-4-[7-[2-(methylamino)ethoxy]imidazo[1,2-a]pyridin-3-yl]benzamide], the IC50 on SIK2 and at SIK3 was 0.01 to 10 nM throughout. Further, the EC50 in assay [1] fell in the range of 100 to 1000 nM.
For the compound `CNc1cc(-c2cnc3cc(OCCN(C)C)ccn23)cc(OC(F)F)c1C(=O)NCC(F)(F)F` [Cpd 165, 2-(difluoromethoxy)-4-[7-[2-(dimethylamino)ethoxy]imidazo[1,2-a]pyridin-3-yl]-6-(methylamino)-N-(2,2,2-trifluoroethyl)benzamide], the IC50 against SIK2 and against SIK3 was 0.01 to 10 nM in each case. Besides, the 50% effective concentration (EC50) in assay [1] lay in the range of 100 to 1000 nM.
